Assay results from a melting point compilation (Tetko et al.; mined from patent text by program, amines drawn as free bases though some values may be those of a salt).

melting point	Compound
114 to 118 °C	CC(C)CNc1c([N+](=O)[O-])cnc2ccccc12
178 to 180 °C	CCOC(=O)c1cn(C2CC2)c2c(OC)c(F)c(F)cc2c1=O
157 °C	Cc1nc(Cc2ccccc2)cc(C(=O)O)c1OCCCN(C)C
112 to 113 °C	O=C(NC(Cc1ccccc1)C(=O)O)OCc1ccc(COc2ccc(F)cc2)cc1 (stereo not given)
150 to 151 °C	Cc1oc(-c2cc(C(F)(F)F)cc(C(F)(F)F)c2)nc1COc1cccc(CN(O)C(N)=O)c1
146 to 149 °C	C[Si](C)(C)/C=C/c1c(N)nc(C2CC2)nc1C(=O)O
153 to 155 °C	Cc1ccc2[nH]ncc2c1NCCN
139 to 140 °C	Fc1cccc2c(OCCc3ccc(Cl)cc3)ccnc12
65 to 67 °C	O=S(=O)(Nc1cccc(CCOCc2ccc(-c3ccc(F)cc3)cc2F)c1)C(F)(F)F
177 to 178 °C	O=C(O)C1=Cc2cc(F)c(N3CCC4(CC3)OCCCO4)nc2N(c2ccc(F)cc2F)C1
236 to 238 °C	O=C1CCC(n2cnc(-c3ccc(F)cc3)c2-c2ccnc(O)n2)CC1
55 to 56 °C	COc1cc2c(cc1OC)-c1cc3ccccc3nc1CC2
260 °C	FC(F)(F)c1cc(-c2ccc(Cl)c(Cl)c2)nc2c(-c3ccncc3)cnn12
138 to 140 °C	CSc1cc2ncnc(Cl)c2s1
92 to 96 °C	Cc1cc(F)ccc1-c1ccc(S(=O)(=O)N2c3ccccc3CC2C(=O)NCc2ccccc2N)cc1 (stereo not given)
131 to 132 °C	CCOC(=O)c1nc(-c2ccc(Cl)cc2F)nc(N)c1Cl
136 to 138 °C	O=C(O)CCC(CCCCNS(=O)(=O)c1ccc(Cl)cc1)CCCn1ccnc1 (stereo not given)
160 to 162 °C	COC(=O)NCOC(=O)N=CNc1c(Cc2cccnc2)c[nH]c1C(=O)OC
198 to 200 °C	CC(C)(C)NC(=O)C1CCC2C3CC=C4C=C(C#N)CCC4(C)C3CCC12C (stereo not given)
139 to 140 °C	NS(=O)(=O)Oc1ccccc1C(=O)O
158 to 160 °C	O=C(O)c1cccc(NCCOCc2ccccc2)c1C(=O)O
140 to 143 °C	Cc1ccc(-c2ncn(-c3ccc(C(F)(F)C(F)(F)C(F)(F)F)cc3)n2)cc1
90 to 92 °C	CC(C)(CCl)C(=O)N(O)Cc1ccccc1

melting point	Compound
66 to 68 °C	COC(=O)c1cc(C(=O)Cl)cc([N+](=O)[O-])c1
173 to 174 °C	N#CNC(=Nc1cccnc1)NC1CCN(Cc2ccccc2)CC1
163 to 164 °C	Fc1ccc(NC(=S)NN2CC=CCC2)cc1
> 260 °C	O=C1CC(c2ccc([N+](=O)[O-])cc2)=Nc2cccc(C(F)(F)F)c21
299 to 301 °C	COC(=O)CCCOc1ccc2nc3[nH]c(=O)[nH]c3cc2c1
196 °C	CCOc1ccc2c(c1)C(C)(c1cccc(O)c1)C(=O)N2S(=O)(=O)c1ccc(C(=O)NC(C)(C)C)cc1 (stereo not given)
227 to 229 °C	NS(=O)(=O)c1nc(-c2ccc([N+](=O)[O-])cc2)c[nH]1
177 to 179 °C	O=C(Nc1cccc2cc(Cn3ccnc3)cnc12)c1c(Cl)cccc1Cl
221 to 222 °C	N#Cc1cc(C(F)(F)F)nn1-c1ccc(NC(=O)c2ccncc2Cl)cc1
98 to 99 °C	O=C(O)CCC1CCN(C(=O)OCc2ccc([N+](=O)[O-])cc2)CC1
138 to 139 °C	CCOC(=O)/C=C/c1cn(Cc2ccc(OCc3nc(-c4ccco4)oc3C)cc2)nc1OCc1ccc(OCc2nc(-c3ccco3)oc2C)cc1
119 to 120 °C	Cc1oc(-c2ccccc2)nc1COc1ccc(Cc2nc(CCC(=O)O)c(-c3ccccc3)s2)cc1
69 to 71 °C	CC(C)(C)OC(=O)NCCNCCNC(=O)OC(C)(C)C
188 °C	c1cc2nc3c(n2nc1N1CCOCC1)CCCC3
222 °C	O=C(CCc1ccccc1)Nc1ccc(CN2C(=O)[C@H]3CCC[C@H]3N(C(=O)CN3C(=O)c4ccccc4C3=O)c3ccccc32)cc1 (relative stereo)
126 to 127 °C	CCSc1nnc(-c2ccccc2)n1Cc1ccc(N)cc1
148 to 151 °C	CCCCN(CCCC)CCCOc1ccc(C(=O)c2c(-c3ccccc3)cc3cc(C(=O)OCC)ccn23)cc1
223 to 224 °C	CC1=C(CC2=NCCN2)CCc2ccccc21
37 to 39 °C	O=C(CCCCC1CCSS1)n1ccnc1 (stereo not given)
191 to 194 °C	CCCS(=O)(=O)NNC(=O)NNS(=O)(=O)CCC
152 to 153 °C	CC1(C)Oc2ccc(C#N)cc2[C@@H](N2CCCNC2=NC#N)[C@@H]1O (relative stereo)
167 to 168 °C	O=C1CCCC1n1nc(-c2c(-c3ccccc3)nn3ccccc23)ccc1=O (stereo not given)
< 50 °C	CCOCCNC(=O)n1sc(OCC)nc1=O

melting point	Compound
197 to 198 °C	CC1=NC(NC(=O)Nc2cccc(C)c2)C(=O)N(CC(=O)N2CCC(C(N)=O)CC2)c2c(C)cccc21 (stereo not given)
184 to 185 °C	CCCCCC(C)N(C=C1C(=O)OC(C)(CNc2cc(C(C)(C)C)c(O)c(C(C)(C)C)c2)OC1=O)Cc1ccc(CC(C)(C)C)s1 (stereo not given)
168 to 169 °C	O=C1Nc2cccnc2N(C(=O)NCCN2CCC(CN3CCCCC3)C2)c2ccccc21 (stereo not given)
104 to 105 °C	CC(C)c1ccc(Oc2ccc(C(=O)c3ccc(Oc4ccc(C(C)C)cc4)cc3)cc2)cc1
92 to 94 °C	COC(=O)N(c1cc(C)ccc1C(=O)c1ccc(F)cc1)C(C)C
161 to 164 °C	CC(C)Oc1c(-c2ccc(S(C)(=O)=O)cc2)cnn(-c2cc(F)ccc2F)c1=O
138 to 140 °C	N#Cc1cc([N+](=O)[O-])ccc1N1CCOCC1
160 to 161 °C	CC(=O)Nc1ccc(S(=O)(=O)NCc2noc(-c3c4ccccc4nn3CCn3ccnc3)n2)cc1
160 °C	Cc1cc(C)c2cccc(OCc3c(Cl)ccc(S(=O)(=O)N4CCC[C@H]4C(=O)N4CCN(C(=O)c5cccc(C(N)=NO)c5)CC4)c3Cl)c2n1
72 °C	CSC(=S)C1(c2ccc3ccccc3n2)CCCS1 (stereo not given)
86 to 88 °C	CCCc1cc(Cl)c(OC(=S)N(C)C)c(C(C)=O)c1OC(C)=O
212 to 214 °C	CCCn1cnc(COc2nn3c(-c4ccccc4)nnc3cc2-c2ccccc2)n1
110 to 111 °C	CC(C)(C)OC(=O)c1cccc(-c2ccc([N+](=O)[O-])cc2)c1
93 to 94 °C	C#CC(Oc1cc(C(=O)OC)cc(OC)c1OC)C1CC1 (stereo not given)
192 °C	CNC(C)=C(C(C)=O)S(=O)(=O)NC(=O)Nc1nc(C)cc(C)n1
245 to 249 °C	CN(Cc1ccc(NC(=O)C2=Cc3cc(-c4ccc5c(c4)CCCO5)ccc3S(=O)(=O)CC2)cc1)C1CCOCC1
151 to 152 °C	CCOC(=O)[C@H](Cc1cc(OC)c(OC)cc1I)NC=O
166 to 169 °C	COc1cc2c(cc1OC)CN(c1nc(N3CCc4cc(OC)c(OC)cc4C3)nc(N3CCc4cc(OC)c(OC)cc4C3)n1)CC2
135 °C	CCOC(=O)C(C)(C)Oc1ccc(-c2ccc(CCNC(=O)c3ccc(F)cc3)cc2)cc1
200 to 201 °C	Cc1sc2nc(SCCCN3CCN(c4nc5ccccc5s4)CC3)n(N)c(=O)c2c1C
113 to 115 °C	CCCCOc1c2c(nc3c1cnn3CC)CCc1ccccc1C2=O
201 °C	Brc1ccc2nc(Br)nn2c1
148 to 150 °C	CC(C)(C)c1cc(-c2nn(CCN3CCCC3=O)c3ncccc23)cc(C(C)(C)C)c1O

melting point	Compound
167 to 169 °C	COc1cc(C(C)C)c2c(c1)S(=O)(=O)N(COC(=O)c1c(C)nn(-c3ccccc3)c1C)C2=O
57.8 °C	CC(C)(C)NC(=O)N1CCN(Cc2ccccc2)C[C@@H]1C(=O)N(CCCn1ccnc1)Cc1ccccc1
113 to 114 °C	OCc1sc(Cl)nc1-c1ccc(Cl)cc1
149 °C	COCCC(=O)OC[C@@H]1CC(c2ccc(-c3ccc(N4C[C@H](Cn5ccnn5)OC4=O)cc3F)cn2)=NO1
97 to 98 °C	CCC[C@H]1CC[C@H](C(=O)O)CC1
60 °C	COc1cc2c(cc1OC)C(c1ccccc1)N(C(=O)NCCN(C)C)CC2 (stereo not given)
187 to 188 °C	CCOC(=O)C1=Cc2cc(Cl)cc(C=NO)c2OC1C(F)(F)F (stereo not given)
> 300 °C	O=c1[nH]c2cc3nc(-c4ccncc4)[nH]c3cc2[nH]c1=O
249 to 251 °C	O=C1CCCc2ccc(Nc3ncc(Cl)c(Nc4ccccc4S(=O)(=O)N4CCCC4)n3)cc2N1
246 °C	CC(CO)(CO)NS(=O)(=O)c1cccc(NC(=O)c2cnn3c(C(F)F)cc(-c4ccc(C(F)(F)F)cc4)nc23)c1
174 °C	COc1c(N2CC[C@@H](C3(NC(=O)OC(C)(C)C)CCC3)C2)ccc2c(=O)c(C(=O)O)cn([C@@H]3C[C@@H]3F)c12
223 to 225 °C	O=C(O)c1cn(CCF)c2nc(N3CCNCC3)c(F)cc2c1=O
125 to 128 °C	COc1nc(C)cnc1N(C(=O)OCC(C)C)S(=O)(=O)c1cccnc1-c1ccc(CBr)cc1
229 to 231 °C	O=c1c(Cc2ccccn2)cc2cccnc2n1-c1cccc([N+](=O)[O-])c1
88 to 90 °C	COC(=O)[C@@H](NS(=O)(=O)c1ccc(Br)cc1)C(C)C
192 to 194 °C	COc1cn(-c2cc3c(cc2F)OC(F)(F)C(F)(F)O3)nc(-c2ccnn2-c2ccccc2)c1=O
152 °C	COc1ccc2ccc(N3C(=O)c4ccccc4C3CC(=O)CCCO)nc2n1 (stereo not given)
72 to 73 °C	Cc1ccc(CSc2ccc(Cl)cc2)cc1
210 to 211 °C	O=C(O)COc1cccc2c1CC(S(=O)(=O)Cc1ccccc1)c1sc(-c3ccc(F)cc3)nc1-2 (stereo not given)
80 to 81 °C	O=C1c2cccc3c2N(CC3)c2ccccc2N1CC#CCN1CCCC1

Compound	melting point
COc1ccc2c(c1)CC[C@H](CN1CCC3(CC1)C(=O)NCN3c1ccccc1)[C@@H]2O (relative stereo)	182 to 183 °C
CC(C)n1cc(C(=O)O)c2ccc(C(F)(F)F)cc21	177 to 178 °C
OCCN1CC[C@@H]2[C@H]1CCC[C@@]2(O)c1ccc(Cl)c(Cl)c1 (racemic)	161 °C
NC(Cc1ccccc1)C(O)C(F)(F)F (stereo not given)	110 to 111 °C
Cc1ccc(-n2nc(C(=O)NC(C)(C)C)c3c2C2CCC3C2)cc1 (stereo not given)	135 to 137 °C
CN1CCN(c2ccc(N)cc2F)CC1	89 to 91 °C
